Counter-ions that a name gives are not always drawn. Like-named read-outs stand apart in the source and are kept apart here.

Consider 13 compounds from US20090118330A1, “Diurea derivatives” (priority 2004, published 2009).

Holding throughout (type): cell-based
The subject of assay [1] is IL-2 production in human T-cells (CD4+). Nature of the assay: Inhibition of PMA/Ionomycin stimulated IL-2 production in human T-cells. The settings on record: T-cell. The procedure:
The compounds to be evaluated were dissolved in DMSO and the dilution series of the compounds were prepared in DMSO. The series were further diluted in cell culture medium (RPMI 1640 with ultraglutamine, 10% foetal calf serum (FCS)) to obtain a final assay concentration of DMSO of 0.1% in 200 μl total volume. The compounds were plated (2 μl/well) on opaque white assay plates together with controls.
Peripheral blood mononuclear cells (PBMC) were isolated from human blood drawn from healthy volunteers, by density gradient separation over Ficoll-Paque. T-cells (CD4+) were obtained with positive selection using magnetic cell sorting (MACS). The cells were resuspended at 1×10^6 cells/ml in cell culture medium (RPMI 1640 with ultraglutamine, 10% FCS, 10 mM hepes, 1 mM sodium pyruvate and 0.1 mg/ml gentamicin).
The cells (1×10^5/well) were added to the assay plates containing the diluted compounds and pre-incubated for 30 min at 37° C. in a humidified atmosphere of 5% carbon dioxide. The cells were stimulated with 10 ng/ml phorbol myristate acetate (PMA) and 250 ng/ml ionomycin and the plates were incubated for 4 hours at 37° C. in a humidified atmosphere of 5% carbon dioxide. Approximately 100 μl of the supernatants were removed and transferred to a separate microtiter plate and the remaining cells were lysed (Nucleotide Releasing Reagent, ViaLight™, Cambrex). All the plates were kept at −20° C. pending analysis. Human interleukin-2 (IL-2) was analysed with a standard ELISA kit (OptEIA™, Pharmingen) according to the manufacturer's instructions. Viability was assessed by measuring adenosine triphosphate (ATP) content by adding luciferase (ATP monitoring reagent, ViaLight™, Cambrex) to the lysed cells and measuring luminescence, all according to the manufacturer's specifications.
The % effect of each concentration of compound was calculated compared to non-treated stimulated cells. Non-linear regression, a modified Hill-plot (y=(a−d)/(1+(x/c)b)+d) was used to calculate the concentration for y=50% (IC50).

The test system of assay [2] is IL-6 production in human peripheral blood mononuclear cells. Nature of the assay: Inhibition of PMA/Ionomycin stimulated IL-6 production in human PBMC. Conditions: mean±S.D., n=3.
Assay [3] relates to TNF-α production in human peripheral blood mononuclear cells. Description: Inhibition of PMA/Ionomycin stimulated TNF-α production in human PBMC. Conditions: mean±S.D., n=3.
The test system of assay [4] is IFN-γ production in human peripheral blood mononuclear cells. Nature of the assay: Inhibition of PMA/Ionomycin stimulated IFN-γ production in human PBMC. Conditions: mean±S.D., n=3.
The test system of a further assay is human T-cells. Nature of the assay: Induction of apoptosis in human T-cells. Conditions: Annexin V, PARP cleavage, DNA fragmentation methods. On the procedure:
The induction of apoptosis can be observed by measuring Annexin V-binding to cells (Van Engeland et al. 1998). Primary human CD4^+ T cells were isolated from peripheral blood from healthy volunteers as described above. Cells were cultured immediately after purification at a density of 2×10^6 cells/ml in RPMI 1640 medium supplemented with 10% FCS, Gentamycin (100 μg/ml), Hepes (10 mM) and Sodium Pyruvate (1 mM). Cells were stained with annexin V-FITC and propidium iodide by using the ApoAlert Annexin V-FITC Apoptosis Kit (Clontech) according to manufacturer's instructions. Flow cytometry analysis was performed using a FACScan (Becton Dickinson). […] Cell lysates were prepared by lysing 2×10^6 PBS-washed cells in 50 μl buffer containing 20 mM Tris-HCl, pH 7.7, 250 mM NaCl, 3 mM EDTA, 3 mM EGTA 0.5% NP-40 supplemented with 1 mM p-nitrophenyl phosphate (PNPP), 10 mM β-glycerophosphate, 100 μM Na-vanadate and 1 mM phenylmethansulfonyl fluoride (PMSF). The protein concentrations were determined by using Bio-Rads protein assay and thereafter equal amounts of protein was loaded onto precasted NuPAGE™ Tris-Bis gels (Novex). After electrophoresis, the proteins were transferred to nitrocellulose membrane and probed with a polyclonal rabbit antibody directed against PARP (Roche). […]

Setting [5] is: mean, n = 2, read-out: IC50 IL-2.

In general, IC50 refers to the concentration that gives 50% inhibition. As to `O=C(NCCN(CCN1CCCC1)C(=O)Nc1ccc(C(F)(F)F)cc1)Nc1ccc2ncccc2c1` [Compound I, 1-{2-[1-(2-Pyrrolidin-1-yl-ethyl)-3-(4-trifluoromethylphenyl)-ureido]-ethyl}-3-quinolin-6-yl-urea], the IC50 in assay [1] (setting [5]) is 5000 nM. On to `O=C(NCCN(CCN1CCCC1)C(=O)Nc1ccc(Cl)cc1)Nc1ccc(Cl)cc1` [Compound C, 3-(4-Chloro-phenyl)-1-{2-[3-(4-chloro-phenyl)-ureido]-ethyl}-1-(2-pyrrolidin-1-yl-ethyl)-urea], for which the IC50 in assay [1] (setting [5]) is 2000 nM. Turning to `CCN(CC)CCN(CCNC(=O)Nc1ccccc1)C(=O)Nc1ccc(C(F)(F)F)cc1` [Compound F, 1-(2-Diethylamino-ethyl)-1-[2-(3-phenyl-ureido)-ethyl]-3-(4-trifluoromethyl-phenyl)-urea], the IC50 in assay [1] (setting [5]) worked out at 3000 nM. On the same count and under the same terms, the value for `O=C(NCCN(CCN1CCCCC1)C(=O)Nc1cccc(C(F)(F)F)c1)Nc1cccc(C(F)(F)F)c1` [Compound K, 1-(2-Piperidin-1-yl-ethyl)-3-(3-trifluoromethyl-phenyl)-1-{2-[3-(3-trifluoromethyl-phenyl)-ureido]-ethyl}-urea] was 2000 nM; that for `CCN(CC)CCN(CCNC(=O)Nc1cccc(C(F)(F)F)c1)C(=O)Nc1ccc(C(F)(F)F)cc1` [Compound B, 1-(2-Diethylamino-ethyl)-3-(4-trifluoromethyl-phenyl)-1-{2-[3-(3-trifluoromethyl-phenyl)-ureido]-ethyl}-urea] was 2000 nM.

In the case of `CCN(CC)CCN(CCNC(=O)Nc1cccc(C(F)(F)F)c1)C(=O)Nc1cccc(C(F)(F)F)c1.Cl` [Compound A, 1-(2-Diethylamino-ethyl)-3-(3-trifluoromethyl-phenyl)-1-{2-[3-(3-trifluoromethyl-phenyl)-ureido]-ethyl}-urea, hydrochloride], the IC50 in assay [1] (setting [5]) came to 2000 nM; in assay [1] (mean±S.D., n=30, read-out: IC50 of IL-2 production), 2000 ± 1000 nM; in assay [2], 3000 ± 1000 nM; in assay [3], 3000 ± 1000 nM; in assay [4], 4000 ± 1000 nM. Further, in the assay with human T-cells, the “concentration at which significant apoptosis induction was observed” value was more than 4 µM. As to `O=C(NCCN(CCN1CCCC1)C(=O)Nc1ccc(C(F)(F)F)cc1)Nc1cccc(C(F)(F)F)c1` [Compound H, 1-{2-[1-(2-Pyrrolidin-1-yl-ethyl)-3-(4-trifluoromethylphenyl)-ureido]-ethyl}-3-(3-trifluoromethyl-phenyl)-urea], the IC50 in assay [1] (setting [5]) turned out to be 1000 nM.

Turning to `CCN(CC)CCN(CCNC(=O)Nc1cc(Cl)nc(Cl)c1)C(=O)Nc1ccc(Br)cc1` [Compound M, 1-{2-[3-(4-Bromo-phenyl)-1-(2-diethylamino-ethyl)ureido]-ethyl}-3-(2,6-dichloro-pyridin-4-yl)-urea], in assay [1] (setting [5]), the IC50 stood at 2000 nM. Regarding `O=C(NCCN(CCN1CCCCC1)C(=O)Nc1ccc(C(F)(F)F)cc1)Nc1cccc(C(F)(F)F)c1` [Compound G, 1-(2-Piperidin-1-yl-ethyl)-3-(4-trifluoromethyl-phenyl)-1-{2-[3-(3-trifluoromethyl-phenyl)-ureido]-ethyl}-urea], the IC50 in assay [1] (setting [5]) stood at 1000 nM. The same measure, in the same setting: the value for `CN(C)CCN(CCNC(=O)Nc1ccc(Cl)cc1)C(=O)Nc1ccc(C(F)(F)F)cc1` [Compound L, 1-{2-[3-(4-Chloro-phenyl)-ureido]-ethyl}-1-(2-dimethylamino-ethyl)-3-(4-trifluoromethyl-phenyl)-urea, hydrochloride] was 2000 nM. Still for that read-out and setting: the value for `CN(C)CCN(CCNC(=O)Nc1ccc(Br)cc1)C(=O)Nc1ccc(Br)cc1` [Compound E, 3-(4-Bromo-phenyl)-1-{2-[3-(4-bromo-phenyl)-ureido]-ethyl}-1-(2-dimethylamino-ethyl)-urea] was 1000 nM. Same read-out and setting: the value for `O=C(NCCN(CCN1CCCC1)C(=O)Nc1ccc(C(F)(F)F)cc1)Nc1ccc(C(F)(F)F)cc1` [Compound J, 1-(2-Pyrrolidin-1-yl-ethyl)-3-(4-trifluoromethyl-phenyl)-1-{2-[3-(4-trifluoromethyl-phenyl)-ureido]-ethyl}-urea] was 3000 nM; that for `O=C(NCCN(CCN1CCCCC1)C(=O)Nc1cccc(Cl)c1)Nc1cccc(C(F)(F)F)c1` [Compound D, 1-{2-[3-(3-Chloro-phenyl)-1-(2-piperidin-1-yl-ethyl)ureido]-ethyl}-3-(3-trifluoromethyl-phenyl)-urea] was 2000 nM.
